# Experimental data from article PMC9182188, “Isoquinoline Alkaloid Contents in Macleaya cordata Extracts and Their Acetylcholinesterase and Butyrylcholinesterase Inhibition” (Molecules, 2022).
# Read-outs that look alike come from different tables or passages of the source.
# Experiments:
# butyrylcholinesterase [1] = molecular target: T1, butyrylcholinesterase (Homo sapiens, UniProt P06276); assay: Butyrylcholinesterase inhibitory activity by HPLC-DAD (Ellman reaction product TNBA); assay type: biochemical; conditions: alkaloid standards, 0.2 U/mL enzyme, 15 min at 37 °C
# T1 construct: purchased Sigma-Aldrich
# T1 sequence (P06276 29-602): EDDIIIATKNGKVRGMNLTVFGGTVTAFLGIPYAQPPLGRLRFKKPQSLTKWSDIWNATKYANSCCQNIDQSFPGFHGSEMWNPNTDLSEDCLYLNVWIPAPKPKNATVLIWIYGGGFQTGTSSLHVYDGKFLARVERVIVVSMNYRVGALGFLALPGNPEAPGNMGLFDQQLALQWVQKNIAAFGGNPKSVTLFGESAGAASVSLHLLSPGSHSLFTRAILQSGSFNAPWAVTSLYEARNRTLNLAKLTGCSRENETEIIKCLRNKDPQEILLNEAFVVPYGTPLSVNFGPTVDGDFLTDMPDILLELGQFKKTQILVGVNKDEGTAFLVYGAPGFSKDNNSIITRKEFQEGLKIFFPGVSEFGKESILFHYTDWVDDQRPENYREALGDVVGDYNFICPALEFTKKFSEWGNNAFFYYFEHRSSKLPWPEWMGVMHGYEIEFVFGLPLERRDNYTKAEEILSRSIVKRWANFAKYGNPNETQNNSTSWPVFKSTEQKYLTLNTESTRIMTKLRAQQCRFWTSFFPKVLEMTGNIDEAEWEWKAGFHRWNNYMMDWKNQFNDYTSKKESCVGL
# Method: For determination of butyrylcholinesterase inhibitory activity of alkaloid standards and plant extracts by HPLC analysis was performed on the same apparatus, column and mobile phase as determination of acetylcholinesterase inhibitory activity.
# (§1) Samples for determination of butyrylcholinesterase inhibitory activity were prepared by addition of 50 µL of butyrylthiocholine iodide, 50 µL of 5′-dithiobis-(2-nitrobenzoic acid), 50 µL of butyrylcholinesterase at concentration 2 U/mL and phosphate buffer at pH 7.8 to obtaining 500 µL of final solution. […] All components were mixed and samples were incubated for 15 min at 37 °C. Samples were filtrated by syringe filter (CHROMAFIL Xtra, PVDF-29/25 0.20 µm) and injected into HPLC system. […] All experiments were performed in triplicates.
# butyrylcholinesterase [2] = molecular target: T1, butyrylcholinesterase; conditions: modified Ellman's method; read-out: IC50 against butyrylcholinesterase; cited from earlier work
# acetylcholinesterase [3] = molecular target: T2, acetylcholinesterase (Homo sapiens, UniProt P22303); conditions: modified Ellman's method; read-out: IC50 against acetylcholinesterase; cited from earlier work
# T2 construct: purchased Sigma-Aldrich
# T2 sequence (P22303 32-614, species assumed): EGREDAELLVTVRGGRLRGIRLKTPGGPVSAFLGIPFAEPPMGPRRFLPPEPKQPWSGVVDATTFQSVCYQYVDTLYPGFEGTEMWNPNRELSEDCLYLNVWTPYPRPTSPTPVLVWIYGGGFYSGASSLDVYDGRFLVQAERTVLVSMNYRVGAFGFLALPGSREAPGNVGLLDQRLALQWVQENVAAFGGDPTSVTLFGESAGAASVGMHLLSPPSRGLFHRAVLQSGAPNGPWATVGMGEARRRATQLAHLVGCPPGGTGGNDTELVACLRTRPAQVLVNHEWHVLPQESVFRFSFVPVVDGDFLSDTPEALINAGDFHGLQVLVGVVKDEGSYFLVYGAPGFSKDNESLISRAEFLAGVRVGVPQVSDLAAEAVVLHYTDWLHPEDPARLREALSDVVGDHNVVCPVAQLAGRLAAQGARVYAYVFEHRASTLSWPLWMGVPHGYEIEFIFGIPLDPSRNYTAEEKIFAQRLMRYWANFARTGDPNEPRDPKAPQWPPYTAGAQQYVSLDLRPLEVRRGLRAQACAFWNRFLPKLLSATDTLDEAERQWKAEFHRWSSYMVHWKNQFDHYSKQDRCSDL
# [4] = system: swine or human cell lines; conditions: cited from earlier work
# acetylcholinesterase [5] = molecular target: T2, acetylcholinesterase; assay: Kinetic analysis of acetylcholinesterase inhibition (Lineweaver-Burk and secondary plots); assay type: biochemical; conditions: for type of acetylcholinesterase inhibition: Lineweaver-Burk and Dixon plots; for Ki: estimated from slope of Lineweaver-Burk plots vs inhibitor concentration, read-out: Ki (inhibition constant), acetylcholinesterase
# Description: The type of inhibition and inhibition constants (Ki value) of the compounds were investigated using Lineweaver–Burk and Dixon plots (Figure 5 and Figure 6).
# The Ki values were estimated by plotting the slope of the individual Lineweaver–Burk plots versus the inhibitor concentrations (Figure 5B and Figure 6B).
# For determination of 5-thio-2-nitro-benzoic acid, the product of reaction between the thiocholine with Ellman’s reagent, HPLC-DAD method was applied. The chromatographic analysis was performed in the same conditions as was used for determination of cholinesterase activity described above. Quantification of 5-thio-2-nitro-benzoic acid was performed by a calibration curve method. 5-thio-2-nitrobenzoic acid was prepared from 5′-dithiobis-(2-nitrobenzoic acid) as described by Landino et al.. 0.5 g of 5′-dithiobis-(2-nitrobenzoic acid) in 25 mL 0.5 M Tris–HCl, pH 8.8, was treated with 2.5 mL β-mercaptoethanol. The pH of the solution was adjusted to 1.5 with 6M HCl. 5-thio-2-nitro-benzoic acid was formed after 6–8 h at 4 °C. The crystals of -thio-2-nitro-benzoic acid were filtered and washed with cold 0.1 M HCl. Types of inhibition were determined by the graphical analysis of Lineweaver–Burk plots and its secondary plots.
# acetylcholinesterase [6] = molecular target: T2, acetylcholinesterase; assay type: biochemical; conditions: alkaloid standards; HPLC-DAD; 0.2 U/mL enzyme; 15 min at 37 °C; pH 7.8
# Method: For determination of acetylcholinesterase inhibitory activity of alkaloid standards and plant extracts by HPLC analysis was performed on the same apparatus as determination of alkaloid contents on Polar RP column with mobile phase A containing methanol and 0.0025 M diethylamine, mobile phase B containing acetate buffer at pH 3.8 and 0.0025 M diethylamine, mobile phase in gradient elution: 0–15 min, 10% A; 15–30 min, 10–70% A; 30–60 min, 70% A. Flow rate was 1 mL/min.
# as §1, with “acetylcholinesterase” for “butyrylcholinesterase”, “acetylthiocholine” for “butyrylthiocholine”
# pig livers = conditions: 32P-post-labeling assay; cited from earlier work
# [7] = pH 7.8, read-out: IC50 values Butyrylcholinesterae
# [8] = pH 7.8, read-out: IC50 values Butyrylcholinesterae (μg/mL) (converted)
Compound,IC50 (butyrylcholinesterase [1]; [7]),IC50 (butyrylcholinesterase [1]; [8]),IC50 (butyrylcholinesterase [2]),IC50 (acetylcholinesterase [3]),toxicity [4],type of acetylcholinesterase inhibition (acetylcholinesterase [5]),Ki (acetylcholinesterase [5]),IC50 (acetylcholinesterase [6]),DNA adducts (pig livers),"IC50 (butyrylcholinesterase [1]; IC50 values Butyrylcholinesterae (μM), pH 7.8)","IC50 (butyrylcholinesterase [1]; IC50 values Butyrylcholinesterae (μg/mL), pH 7.8)",IC50 values Acetylcholinesterase (acetylcholinesterase [6])
"COc1ccc2c(c[n+](C)c3c4cc5c(cc4ccc23)OCO5)c1OC [Chelerythrine, chelerythrine]",2.15 ± 0.19 µM,2.15 µM,3.55 µM,1.03 µM,low toxicity,competitive,0.18 µM,0.72 ± 0.08 µM,no DNA adducts,–,–,–
"CN1CCc2cc3c(cc2C(=O)Cc2ccc4c(c2C1)OCO4)OCO3 [Protopine, protopine]",–,–,–,–,–,–,–,–,–,52.8 ± 4.81 µM,52.8 µM,24.67 µg/mL
"C[n+]1cc2c3c(ccc2c2ccc4cc5c(cc4c21)OCO5)OCO3 [Sanguinarine, sanguinarine]",9.82 ± 0.91 µM,9.81 µM,–,–,low toxicity,noncompetitive,0.2 µM,5.57 ± 0.47 µM,no DNA adducts,–,–,–
